{"source": "patent US20230037414A1", "about": "“INHIBITORS OF ADRENOMEDULLIN FOR THE TREATMENT OF ACUTE MYELOID LEUKEMIA BY ERADICATING LEUKEMIC STEM CELLS” (INSERM (INSTITUT NATIONAL DE LA SANTÉ ET DE LA RECHERCHE …, priority 2019, published 2023)", "key": {"MOLM-14 cells": {"system": "MOLM-14 cells", "assay": "EC50 experiments (MTS cell viability) on MOLM-14 cells FACS-sorted from xenografted mice", "format": "cell-based", "details": "Homo sapiens, MOLM-14, 168 h, after one week of in vitro culture", "description": "The day before experiment, cells were adjusted to 3×10^5 cells/ml final concentration and plated in a 96-well plate (final volume: […]). To measure half-maximal inhibitory concentration (EC50), increased concentrations of AraC or idarubicin were added to the medium. After two days, 20 µl per well of MTS solution (Promega) was added for two hours and then absorbance was recorded at 490 nm with a 96-well plate reader. The doses that decrease cell viability to 50% (EC50) were analyzed Nonlinear regression log [inhibitor] vs. normalized response-variable slope with GraphPad Prism software."}, "primary AML samples": {"system": "primary AML samples", "assay": "PDX model of AraC treatment in AML (NSG mice)", "format": "in vivo"}, "[1]": {"details": "MOLM-14 shCTR cells from AraC treated mice"}, "[2]": {"details": "MOLM-14 shCTR cells from vehicle-treated mice"}}}
{"smiles": "CC(=O)[C@]1(O)Cc2c(O)c3c(c(O)c2[C@@H](O[C@H]2C[C@H](N)[C@H](O)[C@H](C)O2)C1)C(=O)c1ccccc1C3=O", "note": "[idarubicin]", "values": [{"measurement": "EC50", "setting": "MOLM-14 cells; [1]", "result": 61, "unit": "nM"}, {"measurement": "EC50", "setting": "MOLM-14 cells; [2]", "result": 29, "unit": "nM"}]}
{"smiles": "Nc1ccn([C@@H]2O[C@H](CO)[C@@H](O)[C@@H]2O)c(=O)n1", "note": "[AraC, cytarabine]", "values": [{"measurement": "EC50", "setting": "MOLM-14 cells; [1]", "result": 7000, "unit": "nM"}, {"measurement": "EC50", "setting": "MOLM-14 cells; [2]", "result": 2000, "unit": "nM"}, {"measurement": "percentage of human cells in the bone marrow of mice", "setting": "primary AML samples; AraC vs PBS treated mice", "result": "reduced"}, {"measurement": "levels of secreted ADM in the bone marrow of mice", "setting": "primary AML samples; bone marrow supernatant, western blot, AraC vs PBS", "result": "reduced"}, {"measurement": "percentage of positive blasts for CALCRL", "setting": "primary AML samples; minimal residual disease after 60 mg/kg/day AraC for 5 days, day 8, 5.6% without AraC", "result": 23, "unit": "%"}]}
